Laboratory results reported in US20230190707A1, “COMPOSITIONS AND METHODS FOR ENHANCING CANCER IMMUNOTHERAPY” (FRED HUTCHINSON CANCER CENTER, priority 2020, published 2023).

Assays:
MC38 cells [1] = experiment: In vitro growth of MC38 cells after MS-023 treatment and washout; assay type: cell-based, mouse; conditions: 5 μM for 96 hours
Method: (§1) Unless otherwise specified, cell lines were treated with splicing inhibitors at the indicated concentrations for 96 hours in vitro, harvested and washed three times with PBS in excess to remove all drug, and then used for downstream analyses and/or subsequent studies, including phenotyping, RNA-seq analyses, continued growth in vitro, or tumor challenge in vivo into syngeneic animals.

MC38 cells [2] = experiment: In vivo tumor challenge with ex vivo MS-023-treated MC38 cells; set-up: species or system mouse; conditions: MC38 cells treated 5 μM for 96 hours
Method: as §1
(§2) Unless otherwise specified, syngeneic B6 or Balb/c mice were engrafted subcutaneously on bilateral flanks with MC38, B16-F10, CT26 or LLC tumor cells at the following doses: MC38 10^6 cells, B16-F10 0.5×10^6 cells, CT26 0.25×10^6 cells, LLC 0.25×10^6 cells. Tumors were measured serially twice or three times weekly and tumor volumes were estimated by length×width×height. Animals were monitored daily for survival and weighed twice weekly. Experimental endpoints mandating euthanasia were approved by the IACUC and included: animal lethargy, severe kyphosis or evidence of pain, difficulty with ambulation or feeding, tumor ulceration>1 cm or bleeding tumor, evidence of infected tumor, tumor volumes exceeding 2.5 cm^3, or animal total body weight loss>10% from baseline.

[3] = test system: B16-F10, MC38, CT26, and LLC cells; experiment: Cell growth/viability IC50 (CellTiter-Glo); assay type: cell-based; conditions: Mus musculus; range across B16-F10, MC38, CT26, LLC cells
Method: Cell lines were grown with half-log10 concentrations of the indicated drug in 4 to 8 technical replicates under standard conditions until the control condition (DMSO or vehicle) was confluent by microscopy. For tumor cell lines, viable cells were quantified via the CellTiter-Glo® assay (Promega Cat. G7573) as per manufacturer instructions. For the ex vivo proliferation of T cells, viable cells were instead quantified via flow cytometry using counting beads. The percentage or number of viable cells with drug treatment was calculated relative to DMSO control (as 100%). […] For absolute cell number, Annexin V+, CD25+, and PD1+ flow cytometry data presented in Figure S4, dose-response models and IC50 values were computed using the R language's dre package (Ritz, C., et al. (2015). Dose-Response Analysis Using R. PLoS One 10, e0146021).

[4] = test system: B16-F10, MC38, and CT26 cells; experiment: In vivo tumor challenge with ex vivo indisulam-treated cells in syngeneic mice; set-up: species or system mouse
Method: as §1, §2

B16-F10 cells = experiment: Engraftment of indisulam-treated B16-F10 cells into hosts with immune perturbations or with B2m knockout; assay type: in vivo, mouse
Text: B16-F10, CT26.WT (CT26), and LLC cells were obtained from ATCC (Cat. CRL-6475, CRL-2638, and CRL-1642 respectively). MB49 cells were obtained from MilliporeSigma (Cat. SCC148, Burlington, Mass.); MC38 cells were obtained from Kerafast (Cat. ENH204-FP, Boston, Mass.). B16-F10 and MC38 cells expressing chicken ovalbumin (B16ova and MC38ova) were a kind gift of Jeff Ravetch (Rockefeller University, New York, N.Y.). To generate β2 microglobulin deficient cell lines for in vitro experiments, four candidate sgRNAs for mouse β2microglobulin (#1 […] (SEQ ID NO:2), #2 […] (SEQ ID NO:3), #3 […] (SEQ ID NO:4), #4 […]) (SEQ ID NO:5), or nontargeting control ([…]) (SEQ ID NO:6) were cloned into pSpCas9(BB)-2A-Puro (PX459) as previously described (Ran, F. A., et al. (2013). Genome engineering using the CRISPR-Cas9 system. Nat Protoc 8, 2281-2308, incorporated herein by reference in its entirety) and used to engineer deficient MC38, B16-F10, and CT26 cell lines via transfection using XtremeGene 9 reagent as per manufacturer's instructions (MilliporeSigma Cat. 6365809001) followed by puromycin selection at 10 μg/mL for three days. Polyclonal cell populations were obtained by flow sorting for H-2K^b/D^b and P2 microglobulin double-negative cells, and gene knockout further confirmed by stimulating a culture of these sorted cells for 48 hours with 10 U/mL mouse IFNγ and analyzing for the same markers. For in vivo experiments, lentiCas9-Blast was used to generate Cas9-expressing B16-F10 cells. […]
Unless otherwise specified, syngeneic B6 or Balb/c mice were engrafted subcutaneously on bilateral flanks with MC38, B16-F10, CT26 or LLC tumor cells at the following doses: MC38 10^6 cells, B16-F10 0.5×10^6 cells, CT26 0.25×10^6 cells, LLC 0.25×10^6 cells. Tumors were measured serially twice or three times weekly and tumor volumes were estimated by length×width×height. Animals were monitored daily for survival and weighed twice weekly. […]

RBM39 = target: T1, RBM39 (Mus musculus, UniProt Q6PFH3+Q8VH51); experiment: RBM39 protein in tissues after in vivo indisulam; conditions: therapeutic indisulam doses
T1 construct: endogenous in cells; host or cells: B16-F10 (also MC38, CT26, LLC)
Method: Western blotting was performed as per standard techniques. Anti-RBM39 (Atlas Antibodies, Cat. HPA001591 or Bethyl laboratories, Cat. A300-291A) were used to detect RBM39 degradation. ADMA and SDMA levels were determined using antibodies from Cell Signaling Technologies (Cat. 13222S and Cat. 135225). Actin antibody (clone AC-15) was obtained from MilliporeSigma (Cat. A5441-.2ML). Densitometry of RBM39 and actin loading control was performed using ImageJ software in order to calculate RBM39 degradation IC50 values.
Mice were weighed weekly for weight-based drug dosing.

| SMILES | cell growth in vitro after drug washout (MC38 cells [1]) | tumor growth following engraftment into syngeneic, immune-competent mice (MC38 cells [2]) | IC50 [3] | tumor growth following engraftment into syngeneic, immunocompetent mice ([4]; cells treated ex vivo 1 μM four days, drug washout) | animal survival ([4]; exposure to increasing drug concentrations (CT26; 10, 100, 1000 nM, 96 hours)) | growth inhibition with loss of β2-microglobulin in B16-F10 (B16-F10 cells; B2m CRISPR knockout vs control B16-F10, indisulam pretreatment) | in vivo growth inhibition with NK depletion (B16-F10 cells; B16-F10 treated 1 μM 96 hours, NK cell depletion) | in vivo tumor growth inhibition in Rag2 recipients and with T cell depletion (B16-F10 cells; B16-F10 treated 1 μM 96 hours, anti-CD4 and anti-CD8) | RBM39 protein in tumoral as well as immune tissues in vivo (RBM39) |
| --- | --- | --- | --- | --- | --- | --- | --- | --- | --- |
| CC(C)Oc1ccc(-c2c[nH]cc2CN(C)CCN)cc1 [MS-023] | minimal effects | durable suppression of tumor growth |  |  |  |  |  |  |  |
| NS(=O)(=O)c1ccc(S(=O)(=O)Nc2cccc3c(Cl)c[nH]c23)cc1 [indisulam] |  |  | 2.1 to 73 µM | strikingly durable growth inhibition | improved animal survival | rescued the growth inhibition | did not rescue cell growth | rescued | on-target RBM39 protein reduction |
